Results taken from US11850246B2, “Method for treatment of cytokine release syndrome” (NOVMETAPHARMA CO., LTD., priority 2020, dated 2023).

Experiments:
[1] = test system: macrophage; experiment: Anti-inflammatory effect on LPS-activated macrophage: activation surface markers by flow cytometry; type: cell-based; settings: 5 μM compound; macrophage activated with 100 ng/mL LPS; 24 hours after LPS treatment; flow cytometry (FIG. 1A-1C)
Protocol: Dysregulation of immune activation in innate immune cell is the main factor initiating cytokine release syndrome. Immune regulatory effects of the compound of Chemical Formula 1 on macrophage were assessed employing compound 18a (DMRC200434). 5 μM DMRC200434 was treated on activated macrophage with 100 ng/mL lipopolysaccharide (LPS) (Sigma-Aldrich). 24 hours after LPS treatment, activation markers (CD40, CD80, CD86) were measured by flow cytometry.

[2] = test system: LPS induced endotoxemia model; experiment: LPS induced endotoxemia model, survival; type: in vivo, C57BL/6 mice; settings: 30 mg/kg injected 24 hours prior to and at start of LPS (50 mg/kg) injection; survival observed for 50 hours (FIG. 2)
Protocol: 6 to 8-week female C57BL/6 mice (Jackson Lab) were used according to an animal protocol approved by the Institutional Animal Care and Use Committee of Kyungpook National University.
Compound of Chemical Formula 1 (DMRC200434, 30 mg/kg) was dissolved in a solution of 5%—DMSO: 95%—20% PEG400(Saline) and was injected at two points—at 24 hours prior to, and at the start of LPS (50 mg/kg) injection.
The inventors analyzed the efficacy of a compound of Chemical Formula 1 in vivo on LPS-induced endotoxemia model employing DMRC200434. To assess the effect of DMRC200434 on endotoxemia, DMRC200434 was treated on LPS induced endotoxemia model.

Compound: CC(C)N1CCN(c2ccc(/C(=C(/CCCO)c3ccccc3)c3ccc(O)cc3)cc2)CC1 [DMRC200434, (E)-5-(4-hydroxyphenyl)-5-(4-(4-isopropylpiperazin-1-yl)phenyl)-4-phenylpent-4-en-1-ol]
- expression of inflammatory surface marker CD40 [1]: downregulated
- expression of inflammatory surface marker CD80 [1]: downregulated
- expression of inflammatory surface marker CD86 [1]: downregulated
- endotoxin mediated death (survival) [2]: significantly delayed
